Reference: ChEMBL document CHEMBL1149762, “Carbamate prodrugs of N-alkylfuramidines” (Eur J Med Chem, 2008)

Tests used:
Pneumocystis carinii [1] = assay: Antimicrobial activity against Pneumocystis carinii in immunosuppressed rat assessed as number of cysts/g of lung at 33.0 umol/kg/day, po relative to control; format: functional
Rattus norvegicus [2] = assay: Toxicity against immunosuppressed rat pneumocystis model at 33.0 umol/kg/day, po; format: organism-based; details: in vivo
Pneumocystis carinii [3] = assay: Antimicrobial activity against Pneumocystis carinii in immunosuppressed rat assessed as number of cysts/g of lung at 11.0 umol/kg/day, iv relative to control; format: functional
Rattus norvegicus [4] = assay: Toxicity against immunosuppressed rat pneumocystis model at 11.0 umol/kg/day, iv; format: organism-based; details: in vivo
Rattus norvegicus [5] = assay: Toxicity against immunosuppressed rat pneumocystis model at 10.8 umol/kg/day, iv; format: organism-based; details: in vivo
Pneumocystis carinii [6] = assay: Antimicrobial activity against Pneumocystis carinii in immunosuppressed rat assessed as number of cysts/g of lung at 10.8 umol/kg/day, iv relative to control; format: functional
Pneumocystis carinii [7] = assay: Antimicrobial activity against Pneumocystis carinii in immunosuppressed rat assessed as number of cysts/g of lung at 22.0 umol/kg/day, iv relative to control; format: functional
Rattus norvegicus [8] = assay: Toxicity against immunosuppressed rat pneumocystis model at 22.0 umol/kg/day, iv; format: organism-based; details: in vivo
Pneumocystis carinii [9] = assay: Antimicrobial activity against Pneumocystis carinii in immunosuppressed rat assessed as number of cysts/g of lung at 9.4 umol/kg/day, iv relative to control; format: functional
Pneumocystis carinii [10] = assay: Antimicrobial activity against Pneumocystis carinii in immunosuppressed rat assessed as number of cysts/g of lung at 39.8 umol/kg/day, po relative to control; format: functional
Rattus norvegicus [11] = assay: Toxicity against immunosuppressed rat pneumocystis model at 39.8 umol/kg/day, po; format: organism-based; details: in vivo
Pneumocystis carinii [12] = assay: Antimicrobial activity against Pneumocystis carinii in immunosuppressed rat assessed as number of cysts/g of lung at 13.3 umol/kg/day, iv relative to control; format: functional
Rattus norvegicus [13] = assay: Toxicity against immunosuppressed rat pneumocystis model at 13.3 umol/kg/day, iv; format: organism-based; details: in vivo

SMILES | Activity (Pneumocystis carinii [1]) | Activity (Rattus norvegicus [2]) | Activity (Pneumocystis carinii [7]) | Activity (Rattus norvegicus [8]) | also measured
CCOC(=O)/N=C(\NC(C)C)c1ccc(-c2ccc(-c3ccc(/C(=N/C(=O)OCC)NC(C)C)cc3)o2)cc1 | 51.92% | Non-toxic |  |  | Activity (Pneumocystis carinii [3]): 82.21%; Activity (Rattus norvegicus [4]): Non-toxic
CC(C)NC(=N)c1ccc(-c2ccc(-c3ccc(C(=N)NC(C)C)cc3)o2)cc1 | 78.52% | Non-toxic |  |  | Activity (Rattus norvegicus [5]): Non-toxic; Activity (Pneumocystis carinii [6]): 0.26%
CONC(=N)c1ccc(-c2ccc(-c3ccc(C(=N)NOC)cc3)o2)cc1 [PAFURAMIDINE] | 1.21% | Non-toxic | 13.99% | Non-toxic | 
O=C(/N=C(\NC1CCCC1)c1ccc(-c2ccc(-c3ccc(/C(=N\C(=O)OCC(Cl)(Cl)Cl)NC4CCCC4)cc3)o2)cc1)OCC(Cl)(Cl)Cl | 3.7% | Non-toxic | 39.84% | Non-toxic | 
CC(C)N/C(=N\C(=O)OCC(Cl)(Cl)Cl)c1ccc(-c2ccc(-c3ccc(/C(=N\C(=O)OCC(Cl)(Cl)Cl)NC(C)C)cc3)o2)cc1 | 2.01% | Non-toxic | 0.02% | Non-toxic | 
N=C(NC1CCCC1)c1ccc(-c2ccc(-c3ccc(C(=N)NC4CCCC4)cc3)o2)cc1 | 125.3% | Non-toxic |  |  | Activity (Pneumocystis carinii [9]): 0.04%
N=C(N)c1ccc(OCCCCCOc2ccc(C(=N)N)cc2)cc1 [PENTAMIDINE] | 67.78% | Non-toxic | 2.75% |  | 
N=C(N)c1ccc(-c2ccc(-c3ccc(C(=N)N)cc3)o2)cc1 [FURAMIDINE] |  |  |  |  | Activity (Pneumocystis carinii [10]): 15.67%; Activity (Rattus norvegicus [11]): Non-toxic; Activity (Pneumocystis carinii [12]): 0.86%; Activity (Rattus norvegicus [13]): Non-toxic
N/C(=N\C(=O)OCC(Cl)(Cl)Cl)c1ccc(-c2ccc(-c3ccc(/C(N)=N\C(=O)OCC(Cl)(Cl)Cl)cc3)o2)cc1 | 5.45% | Non-toxic | 1.72% | Non-toxic | 
